For this assay, the target named is sLFA-1/ICAM-1 (Homo sapiens, UniProt P05107+P20701, DEL701-769). Description: sLFA-1/ICAM-1 ELISA (inhibition of 5dICAM-Fc binding to coated receptor). To be noted: control compounds; ICAM-1 binding ELISA, sLFA-1 or Mac-1 coated plates. Here is the method:
• Small molecules equipped with a maleimide functionality were covalently conjugated to the RNA through a thioether linkage. To enable this chemistry, ˜60 mg of the RNA containing the 5′-disulfide linker was reduced in water (5 mL) to the corresponding thiol using 1 mL TCEP (0.5 M in water, obtained from Sigma Aldrich). Once analytical anion exchange HPLC indicated completion of the reaction (˜2 h at room temperature) the RNA was precipitated with 30 mL ethanol/3M NaOAc (pH 5.4) 32:1 (v/v) over night at −20° C. The pellet was collected by centrifugation and used for the subsequent small molecule conjugation. • In a typical conjugation reaction 10 mg RNA was dissolved in 2 mL sodium phosphate buffer (0.1 M, pH 7.0). To this solution the small molecule (0.12 mM) in ACN/NMP 1:1 (v/v) was added over a period of 5 minutes. […] The pellet was collected by centrifugation, dissolved in water and if necessary purified by anion exchange HPLC pursuing the procedure given above. If the conjugate is sufficiently pure the reaction mixture was filtered through a size exclusion column (Sephadex G-25, GE Healthcare). Annealing of Oligoribonucleotides to Generate siRNA • Complementary strands were annealed by combining equimolar RNA solutions. […] Absorbance was measured at 450 nm. […]

Sequence of sLFA-1/ICAM-1 (P20701 26-1090 limits assumed, stated change not applied): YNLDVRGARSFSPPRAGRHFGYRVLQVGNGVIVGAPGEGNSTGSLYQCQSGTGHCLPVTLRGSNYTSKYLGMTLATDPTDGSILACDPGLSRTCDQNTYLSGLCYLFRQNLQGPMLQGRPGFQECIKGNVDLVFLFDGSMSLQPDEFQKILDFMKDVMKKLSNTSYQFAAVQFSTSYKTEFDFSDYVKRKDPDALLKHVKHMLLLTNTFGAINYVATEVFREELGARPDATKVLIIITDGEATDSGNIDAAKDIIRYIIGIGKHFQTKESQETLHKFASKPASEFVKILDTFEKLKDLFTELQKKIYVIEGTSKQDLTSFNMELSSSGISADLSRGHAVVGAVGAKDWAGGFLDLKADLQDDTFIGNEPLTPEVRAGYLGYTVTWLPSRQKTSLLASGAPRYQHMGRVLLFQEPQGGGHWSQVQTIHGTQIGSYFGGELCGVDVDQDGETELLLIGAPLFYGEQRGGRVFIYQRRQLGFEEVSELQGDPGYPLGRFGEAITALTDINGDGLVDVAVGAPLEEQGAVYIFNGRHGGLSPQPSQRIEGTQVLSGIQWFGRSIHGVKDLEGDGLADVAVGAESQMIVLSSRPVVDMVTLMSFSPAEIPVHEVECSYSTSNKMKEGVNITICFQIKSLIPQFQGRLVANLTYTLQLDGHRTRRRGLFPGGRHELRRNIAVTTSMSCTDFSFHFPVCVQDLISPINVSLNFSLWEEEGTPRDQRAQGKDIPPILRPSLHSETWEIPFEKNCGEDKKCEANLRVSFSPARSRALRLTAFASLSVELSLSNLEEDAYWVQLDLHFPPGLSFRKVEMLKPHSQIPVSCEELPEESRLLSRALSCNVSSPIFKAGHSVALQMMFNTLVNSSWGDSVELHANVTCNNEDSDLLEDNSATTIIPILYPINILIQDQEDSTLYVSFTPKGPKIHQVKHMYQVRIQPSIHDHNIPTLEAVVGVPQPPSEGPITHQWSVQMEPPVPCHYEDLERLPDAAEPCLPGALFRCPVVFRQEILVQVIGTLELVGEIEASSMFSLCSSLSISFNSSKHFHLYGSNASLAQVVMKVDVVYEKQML
Sequence of sLFA-1/ICAM-1 (P05107 23-700 limits assumed, stated change not applied): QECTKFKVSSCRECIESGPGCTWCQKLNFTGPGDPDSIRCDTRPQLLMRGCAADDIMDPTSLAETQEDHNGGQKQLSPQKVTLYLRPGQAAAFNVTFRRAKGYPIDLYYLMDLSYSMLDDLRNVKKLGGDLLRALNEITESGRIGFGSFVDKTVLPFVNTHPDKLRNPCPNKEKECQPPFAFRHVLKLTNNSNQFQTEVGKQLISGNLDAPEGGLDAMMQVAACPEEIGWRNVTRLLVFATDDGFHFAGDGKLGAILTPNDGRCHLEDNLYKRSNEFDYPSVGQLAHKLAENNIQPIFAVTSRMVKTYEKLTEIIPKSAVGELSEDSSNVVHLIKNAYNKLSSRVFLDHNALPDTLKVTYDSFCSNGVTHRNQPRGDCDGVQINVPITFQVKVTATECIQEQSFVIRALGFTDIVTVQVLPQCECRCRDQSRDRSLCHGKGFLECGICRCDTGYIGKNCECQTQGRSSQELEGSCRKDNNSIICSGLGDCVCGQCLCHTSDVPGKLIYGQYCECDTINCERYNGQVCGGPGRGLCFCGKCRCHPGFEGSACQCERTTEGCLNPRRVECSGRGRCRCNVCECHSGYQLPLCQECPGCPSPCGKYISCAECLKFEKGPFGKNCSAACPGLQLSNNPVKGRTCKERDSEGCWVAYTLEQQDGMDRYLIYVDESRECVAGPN

What is called IC50 is the concentration needed to halve the response being measured. The low end stands for higher potency, the high end for lower potency. For `Cc1cc(C(=O)NCc2cccc(O)c2)cc(C)c1C(=O)N[C@@H](CNC(=O)c1cccs1)C(=O)O` [compound 142], the IC50 is roughly 37 nM.

The compound `O=C(NCc1cccc(O)c1)c1cc(Cl)c(C(=O)N[C@@H](CNC(=O)c2cc(O)cc(O)c2)C(=O)O)c(Cl)c1` [compound 143] registered a half-maximal inhibitory concentration (IC50) of roughly 11 nM.

These data come from patent US9650363B2, “Integrin antagonist conjugates for targeted delivery to cells expressing LFA-1” (Hoffmann-La Roche Inc., priority 2012, dated 2017).
